{
  "source": "patent US8802654B2",
  "about": "“Antiviral compounds” (Adenovir Pharma AB, priority 2009, dated 2014)",
  "test_system": "HAdV-37 virions",
  "experiment": "Binding assay: inhibition of the binding of 35S-labeled HAdV-37 virions to HCE cells",
  "assay_type": "cell-based",
  "conditions": "monovalent sialic acid, stated for comparison with Table 1",
  "experimental": "HCE (human corneal epithelial) and A549 cells were grown as previously described (Araki-Sasaki, K., Ohasi, K. Y., Sasabe, T., Hayashi, K., Watanabe, H., Tano, Y., Handa, H., 1995. “An SV-40-immortalized human corneal epithelial cell line and its characterization.” Invest. Ophtahlmol. 36, 614-621 and Amberg, N., Edlund, K., Kidd, A. H., Wadell, G., 2000a. Adenovirus type 37 uses sialic acid as a cellular receptor. J. Virol. 74, 42-48.).\nHAdV37 (strain 1477) virions were produced as follows: 0.3 mL of HAdV37 inoculation material (prepared from infected A549 cells) was added to A549 cells (175 cm^2 flasks) and incubated for 2 h at 37° C. […] The specific radioactivity of labeled virions was determined to be 4×10^−6 cpm per virion. The identity of HAdV-37 was determined by digesting viral DNA with restriction enzymes and compared to established patterns for HAdV-37 prototype strain (Wadell, G., Sundell, G., de Jong, J. C., 1981. Characterization of candidate adenovirus 37 by SDS-polyacrylamide gel electrophoresis of virion polypeptides and DNA restriction site mapping. J. Med. Virol. 7, 119-125.). […]\nAfter one additional hour, unbound virions were removed by washing, and the cell-associated radioactivity was measured with a Wallac 1409 scintillation counter (Perkin-Elmer). […]",
  "data": [
    {"smiles": "CC(=O)N[C@H]1[C@H]([C@H](O)[C@H](O)CO)OC(O)(C(=O)O)C[C@@H]1O", "note": "(stereo partly shown) [sialic acid]", "values": [
      {"measurement": "IC50", "value": "2 to 5", "unit": "mM"}
    ]}
  ]
}
